Measurements published in ChEMBL document CHEMBL3407448 (J Med Chem, 2015).

Columns and labels:
[1] = Oral bioavailability in male Wistar rat at 7 mg/kg; assay type: ADME, organism-based; settings: in vivo
[2] = Volume of distribution at steady state in male Wistar rat at 2 mg/kg, iv; assay type: ADME, organism-based; design: dose 2 mg/kg, route intravenous; settings: in vivo, read-out: Vdss
[3] = AUC (infinity) in male Wistar rat at 7 mg/kg, po; assay type: ADME, organism-based; design: time infinity, dose 7 mg/kg, route oral; settings: plasma
[4] = Tmax in male Wistar rat at 7 mg/kg, po; assay type: ADME, organism-based; design: dose 7 mg/kg, route oral; settings: in vivo
[5] = Ratio of drug level in CSF to plasma in male Wistar rat; assay type: ADME
[6] = Ratio of drug level in brain to plasma in male Wistar rat; assay type: ADME; settings: read-out: BPR
[7] = Cmax in male Wistar rat at 7 mg/kg, po; assay type: ADME, organism-based; design: dose 7 mg/kg, route oral; settings: in vivo
Rattus norvegicus = test: (§1) Volume of distribution at steady state in male Wistar rat at 1 mg/kg, iv; assay type: ADME, organism-based; design: dose 1 mg/kg, route intravenous; settings: in vivo
[8] = Oral bioavailability in male Wistar rat at 10 mg/kg; assay type: ADME, organism-based; settings: in vivo
[9] = Tmax in male Wistar rat at 10 mg/kg, po; assay type: ADME, organism-based; design: dose 10 mg/kg, route oral; settings: in vivo
[10] = AUC (infinity) in male Wistar rat at 10 mg/kg, po; assay type: ADME, organism-based; design: time infinity, dose 10 mg/kg, route oral; settings: plasma
[11] = Cmax in male Wistar rat at 10 mg/kg, po; assay type: ADME, organism-based; design: dose 10 mg/kg, route oral; settings: in vivo
[12] = Volume of distribution at steady state cynomolgus monkey at 1 mg/kg, iv; assay type: ADME, organism-based, Macaca fascicularis; design: dose 1 mg/kg, route intravenous; settings: in vivo, read-out: Vdss
[13] = Cmax in fasted cynomolgus monkey at 0.3 mg/kg, po; assay type: ADME, organism-based, Macaca fascicularis; design: dose 0.3 mg/kg, route oral; settings: in vivo
[14] = Oral bioavailability in fed cynomolgus monkey at 0.3 mg/kg; assay type: ADME, organism-based, Macaca fascicularis; settings: in vivo
[15] = Oral bioavailability in fasted cynomolgus monkey at 0.3 mg/kg; assay type: ADME, organism-based, Macaca fascicularis; settings: in vivo
[16] = AUC (infinity) in fasted cynomolgus monkey at 0.3 mg/kg, po; assay type: ADME, organism-based, Macaca fascicularis; design: time infinity, dose 0.3 mg/kg, route oral; settings: plasma
Plasma [17] = test: Plasma concentration in male Sprague-Dawley rat at 0.03 mg/ml, po; assay type: ADME
[18] = Tmax in fasted cynomolgus monkey at 03 mg/kg, po; assay type: ADME, organism-based, Macaca fascicularis; design: dose 3 mg/kg, route oral; settings: in vivo, 3 mg/kg
[19] = Cmax in fed cynomolgus monkey at 0.3 mg/kg, po; assay type: ADME, organism-based, Macaca fascicularis; design: dose 0.3 mg/kg, route oral; settings: in vivo
Plasma [20] = test: Plasma concentration in male Sprague-Dawley rat at 0.3 mg/ml, po; assay type: ADME
[21] = AUC (infinity) in fed cynomolgus monkey at 0.3 mg/kg, po; assay type: ADME, organism-based, Macaca fascicularis; design: time infinity, dose 0.3 mg/kg, route oral; settings: plasma
[22] = Tmax in fed cynomolgus monkey at 03 mg/kg, po; assay type: ADME, organism-based, Macaca fascicularis; design: dose 3 mg/kg, route oral; settings: in vivo, 3 mg/kg
[23] = as §1; assay type: ADME, organism-based; design: dose 1 mg/kg, route intravenous; settings: male, Wistar, in vivo, read-out: Vdss

Row | bioavailability [1] [%] | Vd [2] [L/kg] | AUC(0-inf) [3] [ng·h/mL] | Tmax [4] [h] | Kp [5] | Kp [6] | Cmax [7] [ng/mL] | bioavailability [8] [%] | Tmax [9] [h] | AUC(0-inf) [10] [ng·h/mL] | Cmax [11] [ng/mL] | Structure (SMILES) | further results
1 | 84 | 0.8 | 10500 | 1.1 | 0.02 | 0.4 | 1660 |  |  |  |  | Cc1cc(C#Cc2cn(-c3ccc(F)cc3)c(C)n2)ccn1 | 
2 | 18 |  | 661 | 2.3 |  |  | 158 |  |  |  |  | C(#Cc1ncn2c1COc1ccccc1-2)c1ccccc1 | Vdss (Rattus norvegicus): 2.9 L/kg
3 |  | 11 |  |  |  | 2.6 |  | 98 | 5.5 | 78900 | 619 | Cc1nc(C#Cc2ccnc(Cl)c2)c(C)n1-c1ccc(OC(F)(F)F)cc1 | 
4 |  |  |  |  | 0.06 | 2.9 |  | 91 | 6.2 | 25600 | 1580 | Cc1nc(C#Cc2ccnc(Cl)c2)c(C)n1-c1ccc(F)cc1 [BASIMGLURANT] | Vd [12]: 5.1 L/kg; Cmax [13]: 76.5 ng/mL; bioavailability [14]: 54%; bioavailability [15]: 100%; AUC(0-inf) [16]: 852 ng·h/mL; Cp (Plasma [17]): 5 ng/mL; Tmax [18]: 1 h; Cmax [19]: 36.1 ng/mL; Cp (Plasma [20]): 37 ng/mL; AUC(0-inf) [21]: 298 ng·h/mL; Tmax [22]: 2 h; Vd [23]: 4 L/kg
